Source: ChEMBL document CHEMBL4706690, “Identification of BR102910 as a selective fibroblast activation protein (FAP) inhibitor” (Bioorg Med Chem Lett, 2021)
Activity calls are given as the source filed them. The rule behind the calls is not given here.

Key:
Prolyl endopeptidase FAP = molecular target: T1, Prolyl endopeptidase FAP (Homo sapiens, UniProt Q12884); test: Inhibition of FAP (unknown origin) using AMC substrate by fluorometric assay
T1 sequence (Q12884 whole entry): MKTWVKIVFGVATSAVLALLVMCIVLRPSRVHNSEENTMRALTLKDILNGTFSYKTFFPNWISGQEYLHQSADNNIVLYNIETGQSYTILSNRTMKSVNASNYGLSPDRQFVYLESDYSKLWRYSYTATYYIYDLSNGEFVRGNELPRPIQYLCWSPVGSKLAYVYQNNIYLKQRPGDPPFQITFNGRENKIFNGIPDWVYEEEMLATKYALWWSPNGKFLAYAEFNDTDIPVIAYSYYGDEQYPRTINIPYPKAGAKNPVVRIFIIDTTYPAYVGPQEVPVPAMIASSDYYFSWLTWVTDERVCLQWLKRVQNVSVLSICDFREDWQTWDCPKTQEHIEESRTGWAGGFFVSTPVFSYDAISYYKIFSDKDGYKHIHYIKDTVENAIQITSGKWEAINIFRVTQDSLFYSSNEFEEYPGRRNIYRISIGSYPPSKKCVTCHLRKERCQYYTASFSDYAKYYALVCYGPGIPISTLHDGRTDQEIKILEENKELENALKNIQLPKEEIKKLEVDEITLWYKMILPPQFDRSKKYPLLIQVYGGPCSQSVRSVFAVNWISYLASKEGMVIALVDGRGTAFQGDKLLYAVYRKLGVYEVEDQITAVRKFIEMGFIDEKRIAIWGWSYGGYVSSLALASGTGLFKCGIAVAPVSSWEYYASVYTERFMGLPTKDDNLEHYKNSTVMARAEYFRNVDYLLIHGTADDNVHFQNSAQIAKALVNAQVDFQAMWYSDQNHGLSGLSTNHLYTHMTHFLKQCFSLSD

Dipeptidyl peptidase 4 = Dipeptidyl peptidase 4 (Homo sapiens, UniProt P27487); test: Inhibition of DPP4 (unknown origin) using AMC substrate by fluorometric assay
Sequence of Dipeptidyl peptidase 4 (P27487 whole entry): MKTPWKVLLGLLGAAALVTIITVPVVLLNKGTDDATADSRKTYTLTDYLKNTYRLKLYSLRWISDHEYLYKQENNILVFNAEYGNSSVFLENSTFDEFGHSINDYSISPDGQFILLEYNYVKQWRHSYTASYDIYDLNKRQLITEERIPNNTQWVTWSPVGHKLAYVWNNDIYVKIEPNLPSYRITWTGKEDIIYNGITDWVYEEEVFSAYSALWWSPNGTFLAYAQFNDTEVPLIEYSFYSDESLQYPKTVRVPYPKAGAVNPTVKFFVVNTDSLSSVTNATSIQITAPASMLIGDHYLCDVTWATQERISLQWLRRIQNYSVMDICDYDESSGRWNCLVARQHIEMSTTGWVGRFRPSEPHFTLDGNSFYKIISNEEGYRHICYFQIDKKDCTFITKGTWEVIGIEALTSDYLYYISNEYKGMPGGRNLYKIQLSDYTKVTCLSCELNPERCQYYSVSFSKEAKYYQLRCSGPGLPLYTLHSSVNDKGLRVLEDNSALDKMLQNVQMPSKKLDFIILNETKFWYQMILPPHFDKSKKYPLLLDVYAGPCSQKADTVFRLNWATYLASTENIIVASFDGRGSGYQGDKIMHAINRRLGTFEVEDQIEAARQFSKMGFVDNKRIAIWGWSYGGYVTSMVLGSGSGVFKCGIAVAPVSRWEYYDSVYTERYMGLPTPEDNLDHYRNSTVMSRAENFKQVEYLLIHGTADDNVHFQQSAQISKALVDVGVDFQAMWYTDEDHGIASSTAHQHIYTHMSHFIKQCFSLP

[1] = molecular target: Prolyl endopeptidase FAP (Homo sapiens) (UniProt Q12884); test: Inhibition of FAP (unknown origin) at 1 uM TR-FRET assay relative to control
Prolyl endopeptidase = molecular target: T2, Prolyl endopeptidase (Homo sapiens, UniProt P48147)
T2 sequence (P48147 whole entry): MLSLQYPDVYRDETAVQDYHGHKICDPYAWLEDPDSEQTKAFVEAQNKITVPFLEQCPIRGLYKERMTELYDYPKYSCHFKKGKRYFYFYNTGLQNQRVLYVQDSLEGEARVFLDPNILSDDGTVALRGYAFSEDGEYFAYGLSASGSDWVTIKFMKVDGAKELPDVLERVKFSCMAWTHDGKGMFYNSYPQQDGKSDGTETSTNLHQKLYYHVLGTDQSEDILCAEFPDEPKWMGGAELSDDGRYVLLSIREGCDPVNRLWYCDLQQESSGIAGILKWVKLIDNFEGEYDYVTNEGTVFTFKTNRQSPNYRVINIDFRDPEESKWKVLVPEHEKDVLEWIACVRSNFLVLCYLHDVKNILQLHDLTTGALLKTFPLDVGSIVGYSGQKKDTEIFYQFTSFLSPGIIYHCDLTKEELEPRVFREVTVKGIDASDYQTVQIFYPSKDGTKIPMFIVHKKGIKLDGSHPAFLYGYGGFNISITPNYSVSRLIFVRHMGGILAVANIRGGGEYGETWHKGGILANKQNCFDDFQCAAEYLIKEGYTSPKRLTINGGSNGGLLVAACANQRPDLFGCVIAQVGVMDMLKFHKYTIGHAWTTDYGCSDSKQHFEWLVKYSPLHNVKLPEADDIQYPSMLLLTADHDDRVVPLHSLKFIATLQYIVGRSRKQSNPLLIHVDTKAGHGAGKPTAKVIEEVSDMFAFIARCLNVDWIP
Description: Inhibition of PREP (unknown origin) using AMC substrate by fluorometric assay

Mus musculus [2] = test: Antidiabetic activity in ob/ob mouse assessed as reduction in plasma glucose level treated single oral dose of compound and recombinant human FGF21 intraperitoneally 60 mins prior to glucose challenge by OGTT; assay type: functional, organism-based; settings: dose 20-50 mg/kg
Mus musculus [3] = species on record: Mus musculus; settings: C57BL/6J, dose 10-30 mg/kg, time hrs <=6
Mus musculus [4] = species on record: Mus musculus; settings: dose 20-50 mg/kg, time hrs <=9
Dipeptidyl peptidase 2 = Dipeptidyl peptidase 2 (Homo sapiens, UniProt Q9UHL4); test: Inhibition of DPP2 (unknown origin) using AMC substrate by fluorometric assay

Compound | IC50 (Prolyl endopeptidase FAP) | IC50 (Dipeptidyl peptidase 4) | inhibition [1] | IC50 (Prolyl endopeptidase) | Activity (Mus musculus [2]) | inhibition (Mus musculus [3]) | inhibition (Mus musculus [4]) | IC50 (Dipeptidyl peptidase 2)
CS(=O)(=O)c1ccc(Cc2nc(C(=O)NCC(=O)N3CC(F)(F)C[C@H]3C#N)cs2)cc1 | 20 nM | 10100 nM | 98% |  |  |  |  | 
N#C[C@@H]1CC(F)(F)CN1C(=O)CNC(=O)c1csc(-c2ccc(Cl)cc2)n1 | 148 nM |  | 86.7% |  |  |  |  | 
N#C[C@@H]1CC(F)(F)CN1C(=O)CNC(=O)c1csc(Cc2ccc(Br)cc2)n1 | 16 nM | > 100000 nM | 100% |  |  |  |  | 
N#C[C@@H]1CC(F)(F)CN1C(=O)CNC(=O)c1csc(Cc2ccccc2I)n1 | 78 nM | > 100000 nM | 90.6% |  |  |  |  | 
N#C[C@@H]1CC(F)(F)CN1C(=O)CNC(=O)c1csc(Cc2ccc(F)c(F)c2)n1 | 47 nM | > 100000 nM | 95.4% |  |  |  |  | 
N#C[C@@H]1CC(F)(F)CN1C(=O)CNC(=O)c1csc(CSc2ccc(C(F)(F)F)cc2)n1 | 11 nM | > 100000 nM |  |  |  |  |  | 
COc1ccc(-c2nc(C(=O)NCC(=O)N3CC(F)(F)C[C@H]3C#N)cs2)cc1 | 214 nM |  | 76.5% | 1180 nM |  |  |  | 
N#C[C@@H]1CC(F)(F)CN1C(=O)CNC(=O)c1c[nH]c(-c2ccc(Cl)cc2)c1 | 550 nM |  | 57.8% | 3620 nM |  |  |  | 
N#C[C@@H]1CC(F)(F)CN1C(=O)CNC(=O)c1csc(-c2ccc(Cl)cc2C(F)(F)F)n1 | 60 nM | > 100000 nM | 94.6% |  |  |  |  | 
N#C[C@@H]1CC(F)(F)CN1C(=O)CNC(=O)c1csc(Cc2ccc(Cl)cc2)n1 | 21 nM | > 100000 nM | 98.6% |  |  |  |  | 
N#C[C@@H]1CC(F)(F)CN1C(=O)CNC(=O)c1csc(COc2ccc(Cl)c(Cl)c2)n1 | 35 nM | > 100000 nM |  |  |  |  |  | 
N#C[C@@H]1CC(F)(F)CN1C(=O)CNC(=O)c1coc(-c2ccc(Cl)cc2)n1 | 93 nM |  | 88.7% | 4000 nM |  |  |  | 
N#C[C@@H]1CC(F)(F)CN1C(=O)CNC(=O)c1csc(Cc2ccccc2-c2ccc3ccccc3c2)n1 | 4 nM | > 100000 nM | 99.3% |  |  |  |  | 
N#C[C@@H]1CC(F)(F)CN1C(=O)CNC(=O)c1csc(Cc2ccc(Cl)cc2Cl)n1 | 1 nM | > 100000 nM | 97.2% |  |  |  |  | 
N#C[C@@H]1CC(F)(F)CN1C(=O)CNC(=O)c1csc(Cc2ccc(OC(F)(F)F)cc2)n1 | 22 nM | > 100000 nM | 86.3% |  |  |  |  | 
C[S+]([O-])c1ccc(Cc2nc(C(=O)NCC(=O)N3CC(F)(F)C[C@H]3C#N)cs2)cc1 (stereo partly specified) | 390 nM | 4120 nM | 95% | 1200 nM |  |  |  | 
Cn1cc(C(=O)NCC(=O)N2CC(F)(F)C[C@H]2C#N)cc1-c1ccc(Cl)cc1 | 104 nM |  | 85.3% |  |  |  |  | 
N#C[C@@H]1CC(F)(F)CN1C(=O)CNC(=O)c1csc(CSc2ccc(Cl)c(Cl)c2)n1 | 119 nM | > 100000 nM |  |  |  |  |  | 
N#C[C@@H]1CC(F)(F)CN1C(=O)CNC(=O)c1csc(-c2ccc(F)cc2)n1 | 87 nM |  | 90.5% | 1600 nM |  |  |  | 
N#C[C@@H]1CC(F)(F)CN1C(=O)CNC(=O)c1csc(-c2ccc(-c3ccccc3)cc2)n1 | 414 nM |  | 84.8% | 10000 nM |  |  |  | 
N#Cc1ccc(OCc2nc(C(=O)NCC(=O)N3CC(F)(F)C[C@H]3C#N)cs2)cc1 | 7 nM | > 100000 nM |  |  |  |  |  | 
N#C[C@@H]1CC(F)(F)CN1C(=O)CNC(=O)c1cnc(-c2ccc(Cl)cc2)cn1 | 795 nM |  | 64% |  |  |  |  | 
N#Cc1ccc(S(=O)(=O)Cc2nc(C(=O)NCC(=O)N3CC(F)(F)C[C@H]3C#N)cs2)cc1 | 9 nM | 76800 nM |  |  |  |  |  | 

Compound | IC50 (Prolyl endopeptidase FAP) | IC50 (Dipeptidyl peptidase 4) | inhibition [1] | IC50 (Prolyl endopeptidase) | Activity (Mus musculus [2]) | inhibition (Mus musculus [3]) | inhibition (Mus musculus [4]) | IC50 (Dipeptidyl peptidase 2)
N#C[C@@H]1CC(F)(F)CN1C(=O)CNC(=O)c1csc(-c2ccc(C(F)(F)F)cc2)n1 | 77 nM | > 100000 nM | 99% | 1380 nM |  |  |  | 
N#C[C@@H]1CC(F)(F)CN1C(=O)CNC(=O)c1csc(CS(=O)(=O)c2ccc(C(F)(F)F)cc2)n1 | 5 nM | > 100000 nM |  |  |  |  |  | 
N#Cc1ccc(Cc2nc(C(=O)NCC(=O)N3CC(F)(F)C[C@H]3C#N)cs2)cc1 |  | > 100000 nM | 99.3% | 3200 nM |  |  |  | 
CSc1ccc(Cc2nc(C(=O)NCC(=O)N3CC(F)(F)C[C@H]3C#N)cs2)cc1 | 25 nM | > 100000 nM | 99% |  |  |  |  | 
N#C[C@@H]1CC(F)(F)CN1C(=O)CNC(=O)c1csc(Cc2ccc(F)cc2Cl)n1 | 60 nM | > 100000 nM | 95.9% |  |  |  |  | 
Cc1ccc(Cc2nc(C(=O)NCC(=O)N3CC(F)(F)C[C@H]3C#N)cs2)cc1 | 37 nM | 68800 nM | 97.8% |  |  |  |  | 
N#C[C@@H]1CC(F)(F)CN1C(=O)CNC(=O)c1csc(Cc2ccccc2Br)n1 | 50 nM | 200 nM | 93.7% |  |  |  |  | 
N#C[C@@H]1CC(F)(F)CN1C(=O)CNC(=O)c1cccc(-c2ccc(Cl)cc2)n1 | 100 nM |  | 80.6% |  |  |  |  | 
Cc1ccc(S(=O)(=O)Cc2nc(C(=O)NCC(=O)N3CC(F)(F)C[C@H]3C#N)cs2)cc1 | 20 nM | > 100000 nM |  |  |  |  |  | 
N#C[C@@H]1CC(F)(F)CN1C(=O)CNC(=O)c1csc(Cc2cc(Cl)ccc2Cl)n1 | 55 nM | > 100000 nM | 94.5% |  |  |  |  | 
N#C[C@@H]1CC(F)(F)CN1C(=O)CNC(=O)c1csc(Cc2ccc(Cl)c(Cl)c2)n1 | 2 nM | > 100000 nM | 99% |  | Dose-dependent effect | Dose-dependent effect | Active | 
COc1ccc(Cc2nc(C(=O)NCC(=O)N3CC(F)(F)C[C@H]3C#N)cs2)cc1 | 26 nM | > 100000 nM | 98% |  |  |  |  | 
N#C[C@@H]1CC(F)(F)CN1C(=O)CNC(=O)c1csc(-c2ccc3occc3c2)n1 | 446 nM |  | 83.4% | 10000 nM |  |  |  | 
Cc1ccc(SCc2nc(C(=O)NCC(=O)N3CC(F)(F)C[C@H]3C#N)cs2)cc1 | 5 nM | > 100000 nM |  |  |  |  |  | 
N#C[C@@H]1CC(F)(F)CN1C(=O)CNC(=O)c1csc(Cc2ccc(-n3cncn3)cc2)n1 | 28 nM | 18700 nM | 98.3% |  |  |  |  | 
C[C@@H](NC(=O)c1ccncc1)C(=O)N1CCC[C@H]1B(O)O |  | > 100000 nM |  |  |  |  |  | > 100000 nM
N#Cc1ccc(-c2ccc(Cc3nc(C(=O)NCC(=O)N4CC(F)(F)C[C@H]4C#N)cs3)cc2)cc1 | 12 nM | > 100000 nM | 98.7% |  |  |  |  | 
N#C[C@@H]1CC(F)(F)CN1C(=O)CNC(=O)c1csc(Cc2ccc(-c3ccc(Cl)cc3)cc2)n1 | 145 nM | > 100000 nM | 93.8% |  |  |  |  | 
N#C[C@@H]1CC(F)(F)CN1C(=O)CNC(=O)c1csc(Cc2cccc(Br)c2)n1 | 35 nM | 52000 nM | 97.5% |  |  |  |  | 
N#Cc1ccc(SCc2nc(C(=O)NCC(=O)N3CC(F)(F)C[C@H]3C#N)cs2)cc1 | 24 nM | 44600 nM |  | 138 nM |  |  |  | 
N#C[C@@H]1CC(F)(F)CN1C(=O)CNC(=O)c1csc(CS(=O)(=O)c2ccc(Cl)c(Cl)c2)n1 | 19 nM | > 100000 nM |  |  |  |  |  | 
N#C[C@@H]1CC(F)(F)CN1C(=O)CNC(=O)c1csc(Cc2ccc(-n3cccn3)cc2)n1 | 23 nM | > 100000 nM | 98.8% |  |  |  |  | 
